The values that follow come from the supplement of paper PMC5579334.

One test concerns S462. Briefly: relative IC50 (inflection point of fitted dose-response curve, CellTiter-Glo viability, 72 h; top asymptote may be below 50% inhibition); higher = less potent. The essentials:
(§1)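 MPNST cell lines and primary human Schwann cells (750–1000 cells per well) went into 384-well plates preprinted with each compound at five concentrations in 10-fold steps. Plates were incubated 72 h at 37 °C, 5% CO2. Viability was read as CellTiter-Glo ATP luminescence, scaled between vehicle and positive-control wells, with duplicates averaged where present. Percent inhibition is at the top concentration; drug sensitivity score and relative IC50 (censored at top concentration) come from four-parameter logistic fits.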
For orientation: Cellular ATP, detected with luciferase, serves as a proxy for viable cell number.

In the next test the test system is YST-1. The description is as above. Summed up: as §1
For test [1], the system named is HSC1. Described as above. Summed up:
as §1

In test [2] the test system is S1507-2. Described as above. Summed up: as §1
Test [3] has as its system HS-PSS. The description is as above. Summed up: as §1
For test [4], the system named is ST8814. The test is described as above. The essentials:
as §1

The next test deals with HS-Sch-2. The test is described as above. Summed up: as §1
In test [5] the test system is HSC2. Described as above. The essentials: as §1
In test [6] the test system is HSC1. Nature of the test: relative IC50 (inflection point of fitted dose-response curve, CellTox-Green cytotoxicity, 72 h; top asymptote may be below 50%); higher = less potent. Summed up:
(§2)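 MPNST cell lines and primary human Schwann cells were incubated 72 h at 37 °C in 384-well plates holding five 10-fold compound dilutions. CellTox-Green was added before seeding at a final 1:1000 dilution and reported fluorescence from DNA released by disrupted cells. Signals were scaled to vehicle and positive-control wells, and cultures failing plate quality control were dropped. Drug sensitivity score and relative IC50 come from four-parameter logistic fits, with IC50 censored at the top concentration.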

Test [7] relates to STS26T. The test is described as above. Summed up:
as §2

Test [8] relates to S1507-2. The description is as above. Summed up: as §2
Test [9] relates to HS-PSS. The test is described as above. Summed up:
as §2

Test [10] concerns ST8814. The description is as above. Summed up: as §2
In test [11] the test system is HSC2. Described as above. Summed up:
as §2

The subject of test [12] is STS26T. Briefly: relative IC50 (inflection point of fitted dose-response curve, CellTiter-Glo viability, 72 h; top asymptote may be below 50% inhibition); higher = less potent. Summed up: as §1

One may read the relative IC50 as the concentration at the midpoint between the plateaus of the fitted inhibition curve. `CCCCCOC(=O)Nc1nc(=O)n([C@@H]2O[C@H](C)[C@@H](O)[C@H]2O)cc1F` [Capecitabine]: the “relative IC50” value in the test with S462, in the test with YST-1, in the test with HSC1 [1], with S1507-2 [2], with HS-PSS [3] and with ST8814 [4] was > 10000 nM each time. Moreover, the “relative IC50” value in the test on HS-Sch-2, in the test with HSC2 [5], in the test with HSC1 [6], in the test with STS26T [7], with S1507-2 [8] and in the test on HS-PSS [9] was > 10000 nM each time. The “relative IC50” value in the test on ST8814 [10] and with HSC2 [11] was > 10000 nM throughout.
`CC(=O)Nc1cccc(-n2c(=O)n(C3CC3)c(=O)c3c(Nc4ccc(I)cc4F)n(C)c(=O)c(C)c32)c1` [Trametinib]: the “relative IC50” value in the test on S462 was 9.9 nM; in the test on YST-1, > 250 nM; in the test with HSC1 [1], 10.6 nM; in the test with STS26T [12], 7.59 nM; with S1507-2 [2] it was 15.2 nM; in the test on HS-PSS [3], 28.1 nM. Moreover, the “relative IC50” value is 16 nM with ST8814 [4]; 48.6 nM in the test on HS-Sch-2; 18.5 nM in the test on HSC2 [5]; > 250 nM with HSC1 [6]; 45.8 nM with S1507-2 [8]; > 250 nM with HS-PSS [9]. Moreover, the “relative IC50” value with ST8814 [10] is 46.3 nM.
Take `O=C(Nc1ccc2[nH]nc(-c3ccncc3)c2c1)[C@@H]1CCN(CC(=O)N2CCN(c3ccc(-c4ncccn4)cc3)CC2)C1`: the “relative IC50” value in the test with S462 came to 137 nM; in the test with YST-1 it was 2270 nM; in the test with HSC1 [1] it was 263 nM; in the test on STS26T [12], 822 nM; in the test with S1507-2 [2], 568 nM; in the test with HS-PSS [3], 677 nM. Moreover, the “relative IC50” value was 234 nM with ST8814 [4]; 773 nM with HS-Sch-2; 159 nM in the test on HSC2 [5]; > 10000 nM with HSC1 [6]; 1950 nM in the test with S1507-2 [8]; > 10000 nM in the test on HS-PSS [9]. Moreover, the “relative IC50” value in the test on ST8814 [10] came to 675 nM.
Regarding `COc1cc(OC2CCN(C)CC2)ccc1Nc1ncc2c(n1)n(C1CCCC1)c(=O)n2C` [AZ 3146], the “relative IC50” value in the test with S462 was 964 nM; in the test on YST-1, 1480 nM; with HSC1 [1], 3380 nM; in the test on STS26T [12], 1250 nM; in the test with S1507-2 [2], 2690 nM; in the test on HS-PSS [3], 1850 nM. The “relative IC50” value in the test on ST8814 [4] was 2580 nM; in the test with HS-Sch-2 it was 1670 nM; in the test with HSC2 [5], 3340 nM; with HSC1 [6], > 10000 nM; with STS26T [7], 1950 nM; in the test with S1507-2 [8], 3510 nM. For the same compound, the results for the “relative IC50” value in the test with HS-PSS [9] and with ST8814 [10] were 3140 nM and 2960 nM, respectively.
For the compound `CN1CCN(CCOc2cc(OC3CCOCC3)c3c(Nc4c(Cl)ccc5c4OCO5)ncnc3c2)CC1` [Saracatinib], the “relative IC50” value in the test with S462 was determined as 818 nM; in the test with HSC1 [1], 452 nM; in the test on STS26T [12], 1110 nM; with S1507-2 [2] it was 1530 nM; in the test with HS-PSS [3], 1570 nM; with ST8814 [4], 1320 nM. Moreover, the “relative IC50” value in the test on HS-Sch-2 was 2810 nM; with HSC2 [5], 1530 nM; in the test with HSC1 [6], > 10000 nM; in the test with S1507-2 [8], 99.5 nM; in the test on ST8814 [10], 1550 nM; in the test on HSC2 [11] it was 8110 nM.
With `COc1cc(O)c2c(c1)/C=C/C[C@H](O)[C@H](O)C(=O)/C=C\C[C@H](C)OC2=O` [(5Z)-7-Oxozeaenol], the “relative IC50” value with S462 is 1660 nM; in the test on YST-1, 2020 nM; in the test with HSC1 [1], 1690 nM; in the test on STS26T [12], 1360 nM; with S1507-2 [2], 2450 nM; in the test with HS-PSS [3], 3820 nM. Besides, the “relative IC50” value in the test with ST8814 [4] was 1330 nM; with HS-Sch-2 it was 2790 nM; in the test with HSC2 [5] it was 1320 nM; with STS26T [7] it was 3070 nM; in the test on S1507-2 [8], 3520 nM; with HS-PSS [9], > 10000 nM. Moreover, the “relative IC50” value in the test on HSC2 [11] amounted to 3900 nM.
As to `COc1cccc2c1C(=O)c1c(O)c3c(c(O)c1C2=O)C[C@@](O)(C(C)=O)C[C@@H]3O[C@H]1C[C@H](N)[C@H](O)[C@H](C)O1` [Daunorubicin], the “relative IC50” value in the test with S462 came to 49.3 nM; with YST-1, 27 nM; in the test with HSC1 [1], 120 nM; in the test with STS26T [12], 71.6 nM; in the test with S1507-2 [2], 146 nM; in the test with HS-PSS [3], 122 nM. Also, the “relative IC50” value with ST8814 [4] was 101 nM; in the test on HS-Sch-2 it was 117 nM; in the test on HSC2 [5] it was 72.5 nM; in the test on HSC1 [6] it was 366 nM; with S1507-2 [8], > 1000 nM; in the test on HS-PSS [9], > 1000 nM. The “relative IC50” value in the test with HSC2 [11] is 344 nM.
